{"source": "patent US20190091195A1", "about": "“USE OF DIANHYDROGALACTITOL AND DERIVATIVES THEREOF IN THE TREATMENT OF GLIOBLASTOMA, LUNG CANCER, AND OVARIAN CANCER” (Del Mar Pharmaceuticals, priority 2015, published 2019)", "origin": "cited, not measured here", "key": {"[1]": {"details": "cited from earlier work"}, "GSK-3β": {"biological_target": "GSK-3β (Homo sapiens, UniProt P49841)", "sequence (P49841 whole entry, species assumed)": "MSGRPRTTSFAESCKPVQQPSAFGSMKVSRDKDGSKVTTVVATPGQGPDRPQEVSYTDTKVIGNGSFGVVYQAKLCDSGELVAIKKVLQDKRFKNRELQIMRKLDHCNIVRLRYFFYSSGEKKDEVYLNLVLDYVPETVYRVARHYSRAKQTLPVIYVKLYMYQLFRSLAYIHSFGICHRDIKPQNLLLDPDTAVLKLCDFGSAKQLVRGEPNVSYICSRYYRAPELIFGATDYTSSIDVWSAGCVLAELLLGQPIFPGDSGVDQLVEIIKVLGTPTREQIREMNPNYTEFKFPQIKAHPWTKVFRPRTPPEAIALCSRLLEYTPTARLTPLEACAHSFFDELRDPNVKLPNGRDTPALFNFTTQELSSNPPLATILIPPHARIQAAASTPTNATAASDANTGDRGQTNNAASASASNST", "details": "cited from earlier work"}}}
{"smiles": "O[C@H]([C@H](O)[C@@H](O)CBr)[C@H](O)CBr", "note": "[dibromodulcitol]", "values": [{"measurement": "absorption by the oral route", "setting": "[1]", "value": "rapid and fairly complete"}]}
{"smiles": "CN1C(=O)/C(=C2/C(=O)Nc3ccccc32)c2ccccc21", "note": "[Meisoindigo]", "values": [{"measurement": "concentration for inhibition of GSK-3β", "setting": "GSK-3β", "value": "5 to 50", "unit": "nM"}]}
